Data from PubChem BioAssay (NCI).
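Dose response: 5 concentrations. Exposure: 48 h. Format: 96-well plates. Endpoint: linear interpolation; highest concentration if not reached. GI50 marks 50% less growth. TGI denotes the concentration required for complete inhibition of growth.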

What was measured:
Assay in all cases: growth of human tumour cells (NCI), 48 h
MCF7 breast = system: MCF7 breast
KM12 colon = system: KM12 colon
SF-268 CNS = system: SF-268 CNS
PC-3 prostate = system: PC-3 prostate
UACC-257 melanoma = system: UACC-257 melanoma
SW-620 colon = system: SW-620 colon
HCC-2998 colon = system: HCC-2998 colon
NCI-H460 lung = system: NCI-H460 lung
A549 NSCLC = system: A549 NSCLC
OVCAR-8 ovarian = system: OVCAR-8 ovarian
OVCAR-3 ovarian = system: OVCAR-3 ovarian
SF-295 CNS = system: SF-295 CNS
MOLT-4 leukemia = system: MOLT-4 leukemia
DU-145 prostate = system: DU-145 prostate
HCT-116 colon = system: HCT-116 colon
RXF 393 renal = system: RXF 393 renal
SF-539 CNS = system: SF-539 CNS
SN12C renal = system: SN12C renal
NCI-H23 lung = system: NCI-H23 lung
RPMI-8226 leukemia = system: RPMI-8226 leukemia
IGROV1 ovarian = system: IGROV1 ovarian
SK-OV-3 ovarian = system: SK-OV-3 ovarian
SNB-19 CNS = system: SNB-19 CNS
OVCAR-4 ovarian = system: OVCAR-4 ovarian
MALME-3M melanoma = system: MALME-3M melanoma
M14 melanoma = system: M14 melanoma
NCI-H522 lung = system: NCI-H522 lung
SK-MEL-5 melanoma = system: SK-MEL-5 melanoma
HS 578T breast = system: HS 578T breast
SK-MEL-28 melanoma = system: SK-MEL-28 melanoma
COLO 205 colon = system: COLO 205 colon
ACHN renal = system: ACHN renal
HT29 colon = system: HT29 colon
U251 CNS = system: U251 CNS
TK-10 renal = system: TK-10 renal
A498 renal = system: A498 renal
NCI-H226 lung = system: NCI-H226 lung
OVCAR-5 ovarian = system: OVCAR-5 ovarian
SR leukemia = system: SR leukemia
CCRF-CEM leukemia = system: CCRF-CEM leukemia
SNB-75 CNS = system: SNB-75 CNS
786-0 renal = system: 786-0 renal
UACC-62 melanoma = system: UACC-62 melanoma
UO-31 renal = system: UO-31 renal
K-562 leukemia = system: K-562 leukemia
CAKI-1 renal = system: CAKI-1 renal
HCT-15 colon = system: HCT-15 colon
LOX IMVI melanoma = system: LOX IMVI melanoma
NCI/ADR-RES ovarian = system: NCI/ADR-RES ovarian
MDA-MB-231 breast = system: MDA-MB-231 breast
HOP-62 NSCLC = system: HOP-62 NSCLC
T-47D breast = system: T-47D breast
EKVX NSCLC = system: EKVX NSCLC
HOP-92 NSCLC = system: HOP-92 NSCLC
MDA-MB-435 = system: MDA-MB-435

## Oc1ccc(/C=N/Nc2nc3ccccc3s2)c(O)c1
MCF7 breast
  GI50: 1.65 µM
  TGI: 9.39 µM
KM12 colon
  GI50: 2.18 µM
  TGI: 15.8 µM
SF-268 CNS
  GI50: 1.11 µM
  TGI: > 100 µM
PC-3 prostate
  GI50: 4 µM
  TGI: > 100 µM
UACC-257 melanoma
  GI50: 2.79 µM
  TGI: 14.2 µM
SW-620 colon
  GI50: 3.47 µM
  TGI: > 100 µM
HCC-2998 colon
  GI50: 3.76 µM
  TGI: 19.4 µM
NCI-H460 lung
  GI50: 1.78 µM
  TGI: 5.21 µM
A549 NSCLC
  GI50: 2.54 µM
  TGI: 51.9 µM
OVCAR-8 ovarian
  GI50: 1.65 µM
  TGI: > 100 µM
OVCAR-3 ovarian
  GI50: 1.92 µM
  TGI: 12.8 µM
SF-295 CNS
  GI50: 2.86 µM
  TGI: 35.4 µM
MOLT-4 leukemia
  GI50: 2.24 µM
  TGI: 88.1 µM
DU-145 prostate
  GI50: 1.86 µM
  TGI: 17.6 µM
HCT-116 colon
  GI50: 2.78 µM
  TGI: 17.2 µM
RXF 393 renal
  GI50: 3.36 µM
  TGI: > 100 µM
SF-539 CNS
  GI50: 1.89 µM
  TGI: 9.82 µM
SN12C renal
  GI50: 2.09 µM
  TGI: 57.9 µM
NCI-H23 lung
  GI50: 3.03 µM
  TGI: > 100 µM
RPMI-8226 leukemia
  GI50: 2.55 µM
  TGI: > 100 µM
IGROV1 ovarian
  GI50: 0.904 µM
  TGI: 10.8 µM
SK-OV-3 ovarian
  GI50: 2.14 µM
  TGI: 8.93 µM
SNB-19 CNS
  GI50: 2.8 µM
  TGI: > 100 µM
OVCAR-4 ovarian
  GI50: 0.381 µM
  TGI: 2.93 µM
MALME-3M melanoma
  GI50: 1.43 µM
  TGI: 7.26 µM
M14 melanoma
  GI50: 1.38 µM
  TGI: 12.1 µM
NCI-H522 lung
  GI50: 1.39 µM
  TGI: 6.11 µM
SK-MEL-5 melanoma
  GI50: 3.37 µM
  TGI: > 100 µM
HS 578T breast
  GI50: 2.91 µM
  TGI: > 100 µM
SK-MEL-28 melanoma
  GI50: 2.99 µM
  TGI: > 100 µM
COLO 205 colon
  GI50: 3.11 µM
  TGI: 21.3 µM
ACHN renal
  GI50: 1.11 µM
  TGI: 9.89 µM
HT29 colon
  GI50: 3.61 µM
  TGI: 13.6 µM
U251 CNS
  GI50: 1.72 µM
  TGI: > 100 µM
TK-10 renal
  GI50: 2.1 µM
  TGI: 45.2 µM
A498 renal
  GI50: 4.16 µM
  TGI: 36.8 µM
NCI-H226 lung
  GI50: 3.56 µM
  TGI: 65.9 µM
OVCAR-5 ovarian
  GI50: 2.59 µM
  TGI: 21 µM
SR leukemia
  GI50: 1.53 µM
  TGI: 11.4 µM
CCRF-CEM leukemia
  GI50: 0.717 µM
  TGI: > 100 µM
SNB-75 CNS
  GI50: 1.51 µM
  TGI: 9.96 µM
786-0 renal
  GI50: 3.68 µM
  TGI: 53.8 µM
UACC-62 melanoma
  GI50: 1.75 µM
  TGI: 4.82 µM
UO-31 renal
  GI50: 0.341 µM
  TGI: 4.23 µM
K-562 leukemia
  GI50: 2.59 µM
  TGI: > 100 µM
CAKI-1 renal
  GI50: 1.07 µM
  TGI: 15.7 µM
HCT-15 colon
  GI50: 0.734 µM
  TGI: 20.6 µM
LOX IMVI melanoma
  GI50: 3.27 µM
  TGI: 28.8 µM
NCI/ADR-RES ovarian
  GI50: 1.22 µM
  TGI: > 100 µM
MDA-MB-231 breast
  GI50: 1.69 µM
  TGI: 12.9 µM
HOP-62 NSCLC
  GI50: 3.43 µM
  TGI: > 100 µM
T-47D breast
  GI50: 3.37 µM
  TGI: > 100 µM
EKVX NSCLC
  GI50: 2.86 µM
  TGI: > 100 µM
HOP-92 NSCLC
  GI50: 4.46 µM
  TGI: > 100 µM
MDA-MB-435
  GI50: 3.08 µM
  TGI: > 100 µM
